According to patent EP1862549A2, “Target of RNAIII activating protein (TRAP)” (Balaban, Naomi, priority 1998, dated 2007):

Key:
S. aureus = conditions: animals treated with RIP; cited from earlier work
TRAP = conditions: wild type early exponential S. aureus cells incubated in PFB with 32P; PBS as control
Procedure: Wild type early exponential S. aureus cells were incubated for 1 hr in phosphate free buffer (PFB) together with ^32P, with RAP (in PBS) or with PBS only as a control. […] Cells were collected, applied to SDS PAGE, and the gel autoradiographed. The autoradiogram was scanned and the density of the bands determined.
Wild type early exponential S. aureus cells were incubated in PFB with ^32P with either PBS alone, RIP, RAP, or a combination of RIP and RAP. […] The cells were collected, applied to SDS PAGE, the gel autoradiographed, and the relative amounts of TRAP phosphorylation and RNAIII transcription levels determined (Balaban et al. Proc. Natl. Acad. Sci. U.S.A. 92:1619-1623 (1995)). […] The relative levels of TRAP phosphorylation (Fig. 14) and RNAIII transcription (Fig. 15) in the presence of PBS alone (control), RIP, RAP, or RIP and RAP were also determined.

## YSPXTNF (SEQ ID NO:3) [RIP]
S. aureus
  protection from an S. aureus infection: protected
TRAP
  TRAP phosphorylation: inhibited
